Experimental data as given in ChEMBL document CHEMBL3351389, “Identification of novel inhibitors of phospho-MurNAc-pentapeptide translocase MraY from library screening: Isoquinoline alkaloid michellamine B and xanthene dye phloxine B” (Bioorg Med Chem, 2014).
Values after ≈ are worked out from the molar mass of the structure shown. Values belong to the compound of their own block, whether it stands above or below them. Active and inactive are the calls of the source. The calls are words filed in the database; no cut-off is given here.

Assays:
[1] = target: T1, Phospho-N-acetylmuramoyl-pentapeptide-transferase (Escherichia coli, UniProt E2QF15); experiment: Inhibition of recombinant MraY overexpressed in Escherichia coli membranes by continuous fluorescence assay; assay type: cell membranes
T1 sequence (E2QF15 whole entry): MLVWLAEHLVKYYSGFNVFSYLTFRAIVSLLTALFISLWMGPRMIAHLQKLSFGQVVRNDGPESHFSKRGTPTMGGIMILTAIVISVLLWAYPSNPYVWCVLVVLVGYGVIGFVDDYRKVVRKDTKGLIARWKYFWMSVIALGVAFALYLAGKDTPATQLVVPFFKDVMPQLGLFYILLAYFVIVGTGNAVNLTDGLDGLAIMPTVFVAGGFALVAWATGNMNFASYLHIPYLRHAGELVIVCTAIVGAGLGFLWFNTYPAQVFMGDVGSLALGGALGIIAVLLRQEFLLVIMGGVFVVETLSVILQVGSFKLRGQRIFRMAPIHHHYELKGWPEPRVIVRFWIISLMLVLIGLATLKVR

[2] = Inhibition of MraY in Bacillus subtilis membranes by continuous fluorescence assay; assay type: cell membranes
Pseudomonas aeruginosa = experiment: Inhibition of MraY in Pseudomonas aeruginosa membranes at 500 uM by continuous fluorescence assay; assay type: cell membranes
Staphylococcus aureus = experiment: Inhibition of MraY in Staphylococcus aureus membranes at 500 uM by continuous fluorescence assay; assay type: cell membranes
Micrococcus flavus [3] = experiment: Inhibition of MraY in Micrococcus flavus membranes at 500 uM by continuous fluorescence assay; assay type: cell membranes
Bacillus subtilis = experiment: Antimicrobial activity against Bacillus subtilis W23 by liquid culture microtitre plate assay; assay type: functional
Escherichia coli [4] = experiment: Antimicrobial activity against Escherichia coli DH5[alpha] at 1.95 to 125 ug/ml by liquid culture microtitre plate assay; assay type: functional, organism-based
[5] = target: T2, Phospho-N-acetylmuramoyl-pentapeptide-transferase (Escherichia coli) (UniProt E2QF15); experiment: Inhibition of recombinant MraY overexpressed in Escherichia coli membranes at 100 uM after 30 mins by radiochemical assay in presence of [14C-D-Ala]-UDPMurNAc-pentapeptide; assay type: cell membranes
T2 sequence (whole entry): T1 sequence (E2QF15 whole entry)

[6] = target: T2, Phospho-N-acetylmuramoyl-pentapeptide-transferase (Escherichia coli); experiment: Inhibition of recombinant MraY overexpressed in Escherichia coli membranes at 500 uM after 30 mins by radiochemical assay in presence of [14C-D-Ala]-UDPMurNAc-pentapeptide; assay type: cell membranes
Pseudomonas putida = experiment: Antimicrobial activity against Pseudomonas putida ATCC 33015 at 1.95 to 125 ug/ml by liquid culture microtitre plate assay; assay type: functional, organism-based
Micrococcus flavus [7] = experiment: Antimicrobial activity against Micrococcus flavus at 1.95 to 125 ug/ml by liquid culture microtitre plate assay; assay type: functional, organism-based
Escherichia coli [8] = experiment: Inhibition of recombinant Escherichia coli MurG at 500 ug/ml after 30 mins by radiochemical assay in presence of [3H]-UDPGlcNAc
Escherichia coli [9] = experiment: Inhibition of recombinant Escherichia coli MurG at 50 ug/ml after 30 mins by radiochemical assay in presence of [3H]-UDPGlcNAc
[10] = Inhibition of MraY in Pseudomonas aeruginosa membranes by continuous fluorescence assay; assay type: cell membranes
[11] = Inhibition of MraY in Staphylococcus aureus membranes by continuous fluorescence assay; assay type: cell membranes
[12] = Inhibition of MraY in Micrococcus flavus membranes by continuous fluorescence assay; assay type: cell membranes
[13] = target: T2, Phospho-N-acetylmuramoyl-pentapeptide-transferase (Escherichia coli); experiment: Inhibition of recombinant MraY overexpressed in Escherichia coli membranes after 30 mins by radiochemical assay in presence of [14C-D-Ala]-UDPMurNAc-pentapeptide; assay type: cell membranes
[14] = target: T2, Phospho-N-acetylmuramoyl-pentapeptide-transferase (Escherichia coli); experiment: Inhibition of recombinant MraY overexpressed in Escherichia coli membranes at 25 ug/ml by continuous fluorescence assay; assay type: cell membranes

Compound: RAMOPLANIN
inhibition (Escherichia coli [9]): > 80%

Compound: O=C(O)c1c(Cl)c(Cl)c(Cl)c(Cl)c1-c1c2cc(Br)c(=O)c(Br)c-2oc2c(Br)c(O)c(Br)cc12
IC50 [1]: 32 µM
IC50 [2]: 165 µM
IC50 [10]: 128 µM
IC50 [11]: 254 µM
IC50 [12]: 195 µM
inhibition [13]: Active
inhibition (Escherichia coli [8]): inactive

Compound: CC(=O)N[C@H]1[C@@H](O[C@@H]2O[C@H](CC(O)[C@H]3O[C@@H](n4ccc(=O)[nH]c4=O)[C@H](O)[C@@H]3O)[C@H](O)[C@H](O)[C@H]2NC(=O)/C=C/CC(C)C)O[C@H](CO)[C@@H](N)[C@@H]1O (stereo partly drawn)
inhibition [14]: > 95%

Compound: O=C(O)c1ccccc1-c1c2cc(Br)c(=O)cc-2oc2cc(O)c(Br)cc12
inhibition [13]: inactive

Continued, in another order:

IC50 [1]: 456 µM
IC50 [2]: 386 µM
inhibition (Pseudomonas aeruginosa): 38%
inhibition (Staphylococcus aureus): 0%
inhibition (Micrococcus flavus [3]): 14%
MIC (Bacillus subtilis): 16 µg/mL (≈ 21.1 µM)
inhibition [5]: 20%
inhibition [6]: 60%
inhibition (Escherichia coli [8]): inactive
Compound: COc1cc(C)cc2c(-c3c(O)cc(O)c4c3C[C@@H](C)N[C@@H]4C)cc(-c3cc(-c4c(O)cc(O)c5c4C[C@@H](C)N[C@@H]5C)c4cc(C)cc(OC)c4c3O)c(O)c12 [MICHELLAMINE A]
Activity (Escherichia coli [4]): inactive
Activity (Pseudomonas putida): inactive
Activity (Micrococcus flavus [7]): inactive

inhibition [13]: inactive
Compound: O=C(O)c1ccccc1-c1c2cc(Cl)c(=O)cc-2oc2cc(O)c(Cl)cc12
